Source: ChEMBL document CHEMBL3351315, “Tanzawaic acid derivatives from a marine isolate of Penicillium sp. (SF-6013) with anti-inflammatory and PTP1B inhibitory activities” (Bioorg Med Chem Lett, 2014)
Blank lines part the entries; values can stand above or below the compound they belong to. Active and inactive are the calls of the source. The calls are words filed in the database; no cut-off is given here.

What was measured:
BV-2 [1] = assay: Inhibition of LPS-induced nitric oxide production in mouse BV2 cells pre-treated for 3 hrs before LPS stimulation by ELISA based Griess assay; assay type: functional, cell-based
[2] = target: T1, Tyrosine-protein phosphatase non-receptor type 1 (Homo sapiens, UniProt P18031); assay: Inhibition of human recombinant PTP1B assessed as reduction in pNPP substrate hydrolysis incubated for 30 mins
T1 sequence (P18031 whole entry): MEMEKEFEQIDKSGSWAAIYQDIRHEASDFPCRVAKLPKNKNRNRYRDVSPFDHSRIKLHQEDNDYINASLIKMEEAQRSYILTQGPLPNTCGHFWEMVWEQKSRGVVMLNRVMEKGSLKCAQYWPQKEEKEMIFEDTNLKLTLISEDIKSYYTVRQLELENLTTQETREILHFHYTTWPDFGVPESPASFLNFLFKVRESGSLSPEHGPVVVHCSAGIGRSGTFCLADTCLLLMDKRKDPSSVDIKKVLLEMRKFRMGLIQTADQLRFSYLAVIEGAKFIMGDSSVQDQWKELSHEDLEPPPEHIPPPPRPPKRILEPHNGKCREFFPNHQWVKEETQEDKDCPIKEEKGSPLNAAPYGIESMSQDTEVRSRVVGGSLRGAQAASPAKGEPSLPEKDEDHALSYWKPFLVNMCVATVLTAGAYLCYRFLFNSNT

RAW264.7 [3] = assay: Inhibition of LPS-induced nitric oxide production in mouse RAW264.7 cells pre-treated for 3 hrs before LPS stimulation by ELISA based Griess assay; assay type: functional, cell-based
RAW264.7 [4] = assay: Inhibition of LPS-induced iNOS protein expression in mouse RAW264.7 cells pre-treated for 1 hr before LPS stimulation for 18 hrs by Western blot method; assay type: functional, cell-based
RAW264.7 [5] = assay: Inhibition of LPS-induced COX2 protein expression in mouse RAW264.7 cells pre-treated for 1 hr before LPS stimulation for 18 hrs by Western blot method; assay type: functional, cell-based
BV-2 [6] = assay: Inhibition of LPS-induced iNOS protein expression in mouse BV2 cells pre-treated for 1 hr before LPS stimulation for 18 hrs by Western blot method; assay type: functional, cell-based
BV-2 [7] = assay: Inhibition of LPS-induced COX2 protein expression in mouse BV2 cells pre-treated for 1 hr before LPS stimulation for 18 hrs by Western blot method; assay type: functional, cell-based
[8] = Effect on beta-actin protein expression in LPS-induced mouse BV2 cells pre-treated for 1 hr before LPS stimulation for 18 hrs by Western blot method; assay type: ADME, cell-based; conditions: bv-2, 18 h
RAW264.7 [9] = assay: Effect on beta-actin protein expression in LPS-induced mouse RAW264.7 cells pre-treated for 1 hr before LPS stimulation for 18 hrs by Western blot method; assay type: ADME, cell-based; conditions: raw264.7, 18 h
BV-2 [10] = assay: Inhibition of LPS-induced PGE2 production in mouse BV2 cells pre-treated for 3 hrs before LPS stimulation for 24 hrs by ELISA; assay type: functional, cell-based
RAW264.7 [11] = assay: Inhibition of LPS-induced PGE2 production in mouse RAW264.7 cells pre-treated for 3 hrs before LPS stimulation for 24 hrs by ELISA; assay type: functional, cell-based
BV-2 [12] = assay: Inhibition of LPS-induced IL-1beta production in mouse BV2 cells pre-treated for 3 hrs before LPS stimulation for 24 hrs by ELISA; assay type: functional, cell-based
[13] = target: T2, Tyrosine-protein phosphatase non-receptor type 1 (Homo sapiens) (UniProt P18031); assay: Inhibition of human recombinant PTP1B assessed as reduction in pNPP substrate hydrolysis at 30 uM incubated for 30 mins
T2 sequence (whole entry): T1 sequence (P18031 whole entry)

IC50 (BV-2 [1]): 42.5 µM
IC50 [2]: 8.2 µM
SMILES: C[C@H]1C[C@@H](C)[C@@H]2[C@@H](/C=C/C=C/C(=O)O)[C@@H](C)C=C[C@H]2C1

IC50 (RAW264.7 [3]): 27 µM
IC50 (BV-2 [1]): 7.1 µM
IC50 (BV-2 [10]): 17.5 µM
IC50 (RAW264.7 [11]): 15.7 µM
IC50 (BV-2 [12]): 21.9 µM
IC50 [2]: 8.2 µM
SMILES: Cc1ccc2c(c1/C=C/C=C/C(=O)O)[C@H](C)C[C@H](C)C2
inhibition (RAW264.7 [4]): Dose-dependent effect
inhibition (RAW264.7 [5]): Dose-dependent effect
inhibition (BV-2 [6]): Dose-dependent effect
inhibition (BV-2 [7]): Dose-dependent effect
Activity [8]: Non-toxic
Activity (RAW264.7 [9]): Non-toxic

IC50 (BV-2 [1]): 37.8 µM
inhibition [13]: 27.3%
SMILES: Cc1ccc2c(c1/C=C\C=C\C(=O)O)[C@H](C)C[C@@](C)(O)C2

inhibition [13]: inactive
SMILES: C[C@@H]1C[C@@](C)(O)C[C@@H]2C=C[C@H](C)[C@H](/C=C/C=C/C(=O)O)[C@@H]12

inhibition [13]: 24.1%
SMILES: Cc1ccc2c(c1/C=C/C=C/C(=O)O)[C@H](C)C[C@@](C)(O)C2
